The structures appear in SMILES notation. Residues, ends and D or L forms follow the SMILES beside them.

In this data set the test system is Trypsin. Nature of the data set: Proteolytic degradation. The data set is classed as in vitro ADME. To be noted: peptide 100 µM, trypsin 0.125 mg/ml (~5 µM), ammonium bicarbonate buffer 50 mM pH 8.5, 16 h, 37 °C, MALDI-ToF MS. An excerpt: Samples were resuspended in MQ-water containing 0.1% TFA, desalted using ZipTip-C18 columns (Millipore) and analyzed using MALDI-ToF with α-cyano-4-hydroxycinnamic acid as matrix.

Turning to `CC[C@H](C)[C@H](NC(=O)CNC(=O)[C@H](CC(C)C)NC(=O)[C@@H](NC(=O)[C@H](Cc1ccc(O)cc1)NC(=O)[C@@H](NC(=O)[C@H](CO)NC(=O)[C@@H](NC(=O)[C@@H]1CCCN1C(=O)[C@@H](NC(=O)[C@@H](N)CO)C(C)C)[C@@H](C)O)C(C)C)[C@@H](C)O)C(=O)N[C@@H](CCCCN)C(=O)N[C@H](C(=O)N[C@@H](CC(C)C)C(=O)N[C@@H](Cc1c[nH]c2ccccc12)C(=O)N[C@@H](CO)C(=O)N[C@@H](C)C(=O)N[C@@H](Cc1ccc(O)cc1)C(=O)N[C@@H](CCCCN)C(=O)N[C@@H](Cc1c[nH]cn1)C(=O)N[C@@H](CCCNC(=N)N)C(=O)N[C@@H](CCCCN)C(=O)N[C@H](C(=O)N[C@H](C(=O)N[C@@H](CCC(=O)O)C(=O)N[C@@H](CCCCN)C(=O)N[C@@H](CO)C(=O)N[C@@H](Cc1ccccc1)C(=O)N[C@@H](CC(N)=O)C(=O)N[C@@H](CCCCN)C(=O)NCC(=O)N[C@@H](Cc1ccccc1)C(=O)N[C@@H](Cc1ccc(O)cc1)C(=O)N[C@@H](Cc1c[nH]cn1)C(=O)O)[C@@H](C)CC)[C@@H](C)O)[C@@H](C)CC` [L-PLNC8 β] (H-SVPTSVYTLGIKILWSAYKHRKTIEKSFNKGFYH-OH), the degradation by trypsin result is given as “efficiently degraded by trypsin”.

As to `CC(C)C[C@H](NC(=O)[C@H](Cc1ccc(O)cc1)NC(=O)[C@H](Cc1ccc(O)cc1)NC(=O)CNC(=O)[C@H](Cc1c[nH]c2ccccc12)NC(=O)[C@H](CO)NC(=O)[C@H](CO)NC(=O)[C@H](Cc1c[nH]c2ccccc12)NC(=O)[C@H](CC(C)C)NC(=O)[C@H](CCCCN)NC(=O)[C@@H](NC(=O)[C@@H](NC(=O)[C@H](CC(C)C)NC(=O)[C@@H](N)CC(=O)O)[C@@H](C)O)[C@@H](C)O)C(=O)NCC(=O)N[C@@H](CCCCN)C(=O)N[C@@H](CCCCN)C(=O)N[C@@H](C)C(=O)N[C@@H](CCCNC(=N)N)C(=O)N[C@@H](Cc1c[nH]c2ccccc12)C(=O)N[C@@H](CC(N)=O)C(=O)N[C@@H](CC(C)C)C(=O)N[C@@H](CCCCN)C(=O)N[C@@H](Cc1c[nH]cn1)C(=O)N1CCC[C@H]1C(=O)N[C@@H](Cc1ccc(O)cc1)C(=O)N[C@H](C(=O)N[C@@H](CCC(N)=O)C(=O)N[C@@H](Cc1ccccc1)C(=O)O)C(C)C` [L-PLNC8 α] (H-DLTTKLWSSWGYYLGKKARWNLKHPYVQF-OH), the degradation by trypsin result was “efficiently degraded by trypsin”.

These data come from paper PMC7046733, “Plantaricin NC8 αβ exerts potent antimicrobial activity against Staphylococcus spp. and enhances the effects of antibiotics” (Scientific Reports, 2020).
